Earlier results as cited in patent publication US20130266557A1, “METHODS FOR TREATMENT OF A SARCOMA USING AN EPIMETABOLIC SHIFTER (COENZYME Q10)” (priority 2009, published 2013).

System: cancer
Conditions: Mazzio 2006; cited from earlier work

Structure (SMILES): COC1=C(OC)C(=O)C(C)=CC1=O [DMBQ, 2,3-dimethoxy-5-methyl-1,4-benzoquinone, reference compound]
- Potency as an anti-cancer agent relative to CoQ10: > 1000 times
